Experimental findings from patent US8546386B2, “Corrosion and microbial control in hydrocarbonaceous compositions” (Dow Global Technologies LLC, priority 2008, dated 2013) are described below.

Common to all, as to format: cell-based
In assay [1] the test system is mixed inoculum (Ps. aeruginosa, Y. tropicalis, H. resinae). The assay can be described thus: Microbial resistance of biodiesel fuel, overall statements. Particulars: absence of biocide.
Assay [2] deals with Hormoconis resinae ATCC#20495. The assay can be described thus: Microbial testing in biodiesel fuel, plate count. Particulars: no biocide.
In assay [3] the test system is Pseudomonas aeruginosa ATCC#33988. As to the kind of experiment: Microbial testing in biodiesel fuel, plate count. To be noted: no biocide.

As to `CCCCCCCC/C=C\CCCCCCCC(=O)[O-].[K+]` [KOH/Oleic, potassium oleate], the “effect on microbial resistance of biodiesel” value in assay [1] is “no effect”.
Consider `CCCCCCCC/C=C\CCCCCCCC(=O)O` [Oleic Acid, oleic acid], for which the “effect on microbial resistance of biodiesel” value in assay [1] was “no effect”. Further, the “Mold (H. resinae) count” value is reported as 1.70E+05 Mold/ml in assay [2] (additive 500 ppm, Week 1); 6.00E+05 Mold/ml in assay [2] (additive 500 ppm, Week 2); 8.20E+05 Mold/ml in assay [2] (additive 500 ppm, Week 3); 7.80E+03 Mold/ml in assay [2] (additive 500 ppm, Week 4); 6.40E+04 Mold/ml in assay [2] (additive 1500 ppm, Week 1); 7.70E+05 Mold/ml in assay [2] (additive 1500 ppm, Week 2). For the same compound, the “Mold (H. resinae) count” value in assay [2] (additive 1500 ppm, Week 3) is given as 6.00E+05 Mold/ml; in assay [2] (additive 1500 ppm, Week 4), 9.80E+03 Mold/ml. The “Bacteria (Ps. aeruginosa) count” value in assay [3] (additive 500 ppm, Week 1) is listed as 7.80E+05 Bact/ml; in assay [3] (additive 500 ppm, Week 2), 8.80E+05 Bact/ml; in assay [3] (additive 500 ppm, Week 3), 7.40E+05 Bact/ml; in assay [3] (additive 500 ppm, Week 4) it was 8.00E+05 Bact/ml; in assay [3] (additive 1500 ppm, Week 1) it was 5.00E+04 Bact/ml; in assay [3] (additive 1500 ppm, Week 2), 2.00E+05 Bact/ml. In addition, the “Bacteria (Ps. aeruginosa) count” value in assay [3] (additive 1500 ppm, Week 3) was found to be 1.30E+05 Bact/ml; in assay [3] (additive 1500 ppm, Week 4), 3.20E+05 Bact/ml.
